# Laboratory results published in PMC2034157, “CRC/EORTC/NCI Joint Formulation Working Party: experiences in the formulation of investigational cytotoxic drugs” (British Journal of Cancer, 1995).
# Read-outs that look alike come from different tables or passages of the source.
# Legend:
# [1] = Stability of formulated product (shelf-life, reconstituted solution); details: for pH of reconstituted solution: lyophilised product reconstituted with water
# Excerpt: (§1) Brsh Jowbnl d Cancer ( ) 72, 210-218 ? […] Figwe 3 Chemical stnruu of disulphonated aluminium phthalocyamne.
# [2] = Preclinical toxicology studies
# Excerpt: (§2) Figwe 3 Chemical stnruu of disulphonated aluminium phthalocyamne.
# Aqueous solubility = details: for aqueous solubility (in words): water / aqueous solution
# solid tumour models = assay: Activity in solid tumour models; format: in vivo; details: several solid tumour models
# Excerpt: as §1
# [3] = Solution stability / decomposition studies
# Excerpt: as §2
# [4] = cited from earlier work
# gliomas = test system: gliomas; set-up: method as in Stevens and Newlands, 1993; details: daily for five consecutive days; ref Stevens and Newlands, 1993; cited from earlier work
# Murine anti-tumour tests = format: in vivo
# Excerpt: as §1
# [5] = Solubility in co-solvents, non-aqueous solvents and solubilising vehicles
# Excerpt: as §1
# [6] = Clinical pharmacokinetics in phase I trial; format: in vivo, human
# Excerpt: as §1
# [7] = set-up: method as in de Vries et al., 1993; details: aqueous solution; ref de Vries et al., 1993; cited from earlier work
# [8] = Phase I/II clinical trials: toxicity; format: in vivo, human; details: phase I trial
# Excerpt: as §1
# colon 26 = assay: Anti-tumour activity against colon 26 tumour; format: in vivo
# Excerpt: as §1
# DNA polymerase-alpha = test system: DNA polymerase-alpha; set-up: method as in Bucknall et al., 1973; Taguchi et al., 1978; details: ref Bucknall et al., 1973; Taguchi et al., 1978; cited from earlier work
# B16 melanoma = assay: Anti-tumour activity against B16 melanoma; format: in vivo
# Excerpt: as §1
# [9] = cited from earlier work; for maximum tolerated dose (MTD): ref Judson et al., 1989
# P388 leukaemia = assay: Anti-tumour activity against P388 leukaemia; format: in vivo
# Excerpt: as §1
# L1210 leukaemia = assay: Anti-tumour activity against L1210 leukaemia; format: in vivo
# Excerpt: as §1
# [10] = set-up: method as in Torres-Labandeira et al., 1991; details: 40% aqueous solution of HPCD; ref Torres-Labandeira et al., 1991; cited from earlier work
# [11] = test system: acid or alkaline phosphatase; assay: Incubation of prodrug with phosphatase; format: biochemical; details: incubated with acid or alkaline phosphatase
# Excerpt: as §1
# [12] = In vivo anti-tumour activity
# Excerpt: as §1
# [13] = Preliminary murine toxicological study; format: in vivo; details: PET solvent system formulation
# Excerpt: as §1
# [14] = In vitro anti-tumour activity; format: cell-based
# Excerpt: as §1
# [15] = phase I studies; ref Sessa et al., 1991; cited from earlier work
# [16] = Compatibility and adsorption studies with administration sets; format: physicochemical
# Excerpt: as §1
# [17] = data from the drug's discoverers; ref Pettit et al., 1982; cited from earlier work
# MX-1 mammary carcinoma = test system: MX-1 mammary carcinoma; set-up: method as in Waud et al., 1992; details: xenograft in athymic mice; ref Waud et al., 1992; cited from earlier work
# NCI-H82 = test system: NCI-H82; set-up: method as in Waud et al., 1992; details: xenograft in athymic mice; ref Waud et al., 1992; cited from earlier work
# LOX amelanotic melanoma = test system: LOX amelanotic melanoma; set-up: method as in Waud et al., 1992; details: xenograft in athymic mice; ref Waud et al., 1992; cited from earlier work
smiles,measurement,setting,value
CCCCCCCCCCCCCCCCCCOCC1(COP(=O)([O-])OCC[N+](C)(C)C)CCCO1 (centres unmarked) [SRI 62-834],time formulation is chemically and physically stable,[1]; Intralipid formulation,3 months
same,local tolerance of simple aqueous formulations,[2]; simple aqueous formulations,irritation at the site of injection
same,solubility in aqueous systems,Aqueous solubility; at 20C,50 % (w/ v)
"CC(C)NC(=O)OCc1c(COC(=O)NC(C)C)c(-c2ccc(Cl)c(Cl)c2)n2c1CCC2 [NSC-278214, reference compound]",anti-tumour activity,solid tumour models,activity
same,half-life,[3]; 66% aqueous acetone at 25 C,around 5 mi
same,drug decomposed,"[4]; in 2 h, 10% fat emulsion (Intralipid), 0.7 mg ml-1, 1% DMA, 5% Cremophor EL, ref El-Sayed and Repta 1983",about 10%
same,aqueous solubility (in words),Aqueous solubility,negligible
Cn1nnc2c(C(N)=O)ncn2c1=O [Temozolomide],activity against gliomas,gliomas,evident
same,potency relative to mitozolomide,Murine anti-tumour tests,less potent
same,solubility in DMSO relative to mitozolomide,[5]; DMSO,less soluble
same,bioavailability,"[6]; human, in vivo, patients, 200 mg m2, oral vs i.v., read-out: bioavailability of oral formulation",~100%
same,dose dependency in the pharmacokinetics,"[6]; oral formulation, dose escalations",no evidence of dose dependency
same,absorption of oral formulation,"[6]; patients, oral",rapid
same,toxicity relative to mitozolomide,[2]; in vivo,ess toxi
Cn1c(/C=C/CO)c(CO)c2c1C(=O)C=C(N1CC1)C2=O [E.O.9],time reconstituted solution is stable,"[1]; 0.5 mg ml-1 in 0.9% sodium chloride, room temperature",at least 24 h
same,solubility,physchem,200 to 500 µg/mL
same,aqueous solubility (in words),Aqueous solubility,lmited
same,pH of maximum stability,[7],around 9.5
COc1ccc(O)cc1 [4-Hydroxyanisole],toxicity observed,"[8]; intravenous, ethanol vehicle",Hepatotoxicity was observed
"C[C@@]1(CO)[C@H](O)CC[C@@]2(C)[C@H]1CC[C@H]1C[C@@H]3C[C@@]12CC[C@]3(O)CO [Aphidicolin, reference compound]",solubility,physchem,~250 µg/mL
same,anti-tumour activity,colon 26,observed
same,effect on DNA polymerase,DNA polymerase-alpha,inhibit
same,anti-tumour activity,B16 melanoma,observed
"CN(CO)c1nc(N(C)CO)nc(N(C)CO)n1 [Trimelamol, N2,N4,N6-trihydroxymethyl-N2,N4,N6-trimethylmelamine]",maximum tolerated dose (MTD),[9]; single administration,2400 mgm-2
same,maximum tolerated dose (MTD),[9]; thrice-daily schedule,1000 mg m2
same,anti-tumour activity,P388 leukaemia,active
same,pH of maximum stability,"[3]; HPLC, 25C, pH 3-12.5",10-11
same,half-life,"[3]; buffer, pH 10",> 30 h
same,solubility,physchem; water,10000 µg/mL
same,anti-tumour activity,colon 26,active
same,anti-tumour activity,B16 melanoma,active
same,anti-tumour activity,L1210 leukaemia,active
same,solubility,[5]; 95% ethanol,~45000 µg/mL
same,solubility,[5]; DMA,~375000 µg/mL
same,solubility,[5]; propylene glycol,~15000 µg/mL
same,t/2 of reconstituted freeze-dried formulation,"[4]; 50% aqueous PEG 3400, 30 mg ml-1, not further diluted, ref Gibson et al. (1990)",46.3 h
"ClCC[N+]12CC[N+](CCCl)(CC1)C2.O=C([O-])/C=C\C(=O)O.O=C([O-])/C=C\C(=O)O [Dabis maleate, 1,4-bis (2'-chloroethyl)-1,4-diazabicyclo-[2.2.1] heptane dimaleate]",recommended phase II dose,"[9]; 6 h infusion for 6 weeks followed by 3 week drug vacation, ref Verweij et al., 1992",500 mg m2 week-'
same,recommended dose for phase II trials,"[9]; once every 3 weeks, ref van der Burg et al., 1991",750 mg m-2
same,dose-limiting toxicity,"[9]; phase I, once every 3 weeks, ref van der Burg et al., 1991",neurotoxicity
same,toxicity of prolonged infusion,"[9]; prolonged infusion, ref Verweij et al., 1992",neurotoxicity consisting of parasthesia and ataxia
O=C1N[C@H]2[C@H](O)[C@H](O)[C@@H](O)[C@H](O)[C@@H]2c2cc3c(c(O)c21)OCO3 [Pancratistatin],pH of reconstituted solution,[1],6.3
same,solubility in hydroxypropyl-beta-cyclodextrin solution,[10],approximately 1.2 mg ml-'
same,solubility,[5]; aqueous solubilisation with complexing agent,1000 µg/mL
same,solubility,[5]; solubility in a range of solvents,< 400 µg/mL
COc1ccc(/C=C\c2cc(OC)c(OC)c(OC)c2)cc1OP(=O)(O)O [phosphate ester],stability in aqueous solutions (in words),[3]; aqueous solutions,adequate
same,release of parent molecule,[11],released the parent mokcule
same,in vivo activity,[12],inactive
same,aqueous solubility (in words),Aqueous solubility,adequate
COc1ccc(/C=C\c2cc(OC)c(OC)c(OC)c2)cc1O [Combretastatin A4],local tolerance,[13],severe irritation at the injection site
same,in vivo activity,[12],no significant
same,in vitro anti-tumour activity,[14],excellent
CO[C@@H](/C(C)=C/C=C/C(C)=C/c1coc(C)n1)[C@@H](C)[C@@H]1C[C@H](O)[C@@]2(C)O[C@@H]2/C=C/[C@@H](C)[C@H]2C[C@H](CC(=O)O2)C[C@@H]2O[C@H]2C(=O)O1 [Rhizoxin],increase in degradation in presence of light vs protected from light,[3]; pH 5.6,approximately 2 -fold
same,solubility,physchem,12 µg/mL
same,solubility in t-butanol and t-butanol-water mixtures,"[5]; t-butanol, t-butanol-water",excellent
CCN(CC)c1ccc2cc(C(=O)Nc3ccc4[nH]c(C(=O)N5C[C@@H](CCl)c6c5cc(OC(=O)Nc5ccccc5)c5[nH]cc(C)c65)cc4c3)oc2c1 [Carzelesin],time drug is stable in PET vehicle,"[1]; stored at -30C, PEG 400/polysorbate 80/ethanol",at least 1 year
same,solubility in common pharmaceutically acceptable solvents,[5],very low
C[C@@]1(CO)[C@H](O)CC[C@@]2(C)[C@H]1CC[C@H]1C[C@@H]3C[C@@]12CC[C@]3(O)COC(=O)CN.Cl [aphidicolin glycinate],dose at which toxicity was dose limiting,"[9]; 1 h infusion for five consecutive days every 3 weeks, ref Sessa et al., 1991",2250 mg m-2
same,dose at which toxicity was dose limiting,"[9]; 24 h infusion every 3 weeks, ref Sessa et al., 1991",4500 mg m-2
same,dose-limiting toxicity,"[9]; both phase I studies, ref Sessa et al., 1991",Local toxicity
same,anti-tumour activity,P388 leukaemia,active
same,time diluted solution is stable,"[1]; 1 mg ml-1 in 5% dextrose or 0.9% sodium chloride injection, HPLC",more than 24 h
same,time reconstituted solution is stable,[1]; 100 mg ml-1 in water for injection,at least 24 h
same,pH of maximal stability,[3]; pH 2.0-9.0 at 40-C,4.5
same,pharmacologically active levels,[15],had not been achieved
same,anti-tumour activity,B16 melanoma,active
same,solubility of hydrochloride salt of the glycine amino group,Aqueous solubility; hydrochloride salt,greater than 100 mgnml'
CCC/C=C/C=C/C(=O)O[C@H]1/C(=C/C(=O)OC)C[C@H]2C[C@H]([C@@H](C)O)OC(=O)C[C@H](O)C[C@@H]3C[C@H](OC(C)=O)C(C)(C)[C@](O)(C[C@@H]4C/C(=C/C(=O)OC)C[C@H](/C=C/C(C)(C)[C@]1(O)O2)O4)O3 [bryostatin 1],adsorption onto administration set surfaces,"[16]; PTFE-lined sets, ethanol concentration below 50%",significant
same,adsorption onto administration set surfaces,[16]; plastic not PTFE-lined (e.g. PVC),exten- sive adsorption
same,percentage of ethanol below which the drug precipitated,[5]; ethanolic solutions at predicted formulation concentrations,below 50%
same,local toxicity thought to be associated with high ethanol concentration,[8]; ethanol solution,phlebitis
same,major toxicity,[8]; with or without in-line dilution,general myalgia
same,aqueous solubility (in words),[17],lmited
"NC(=O)c1ncn2c(=O)n(CCCl)nnc12 [Mitozolomide, mitozolomide, reference compound]",toxicity for which trials were terminated,[9]; phase I and phase II clinical trials,unpredictable throm- bocYtopenia
"CNC(=O)OCc1nc(SC)n(C)c1COC(=O)NC.Cl [Carmethizole hydrochloride, carmethizole hydrochloride]",teA (time to 10% decomposition),"[1]; freeze-dried product reconstituted with water for injection, solution pH 2.8",~5.4 h
same,pH of reconstituted solution,[1],2.8
same,pH of maximal stability,[3]; about pH 1 or lower,~1
same,anti-tumour activity,MX-1 mammary carcinoma,active
same,anti-tumour activity,NCI-H82,active
same,toxicity observed,[2]; preclinical toxicology studies,signifiant cardiotoxicity
same,solubility of the hydrochloride salt,Aqueous solubility; hydrochloride salt,greater than 500 mg ml- 1
same,anti-tumour activity,LOX amelanotic melanoma,active
CS(=O)(=O)OCCN(CCCl)c1ccc(C(=O)N[C@@H](CCC(=O)O)C(=O)O)cc1 [Springer prodrug],time until degradation apparent,[1]; lyophilised material at 20-25C,≤ 2 weeks
same,time lyophilised material is stable,[1]; stored at 4C,up to 1 year
